ChEMBL document CHEMBL1201862, “PubChem BioAssay data set” (2004)
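How tested: cells in 96-well plates exposed to compound for 48 hours at five concentrations. GI50 is the concentration that inhibits growth by half.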 Calls of active or inactive are those of the source. No stated cut-off is given here; in the data, active = GI50 up to about 1.1 µM and inactive = higher.

Key:
Experiment in all cases: DTP human tumour cell line panel, 48 h
K562 = system: K562
UACC-257 = system: UACC-257
HCC 2998 = system: HCC 2998
SK-MEL-2 = system: SK-MEL-2
OVCAR-4 = system: OVCAR-4
RPMI-8226 = system: RPMI-8226
SK-MEL-5 = system: SK-MEL-5
OVCAR-5 = system: OVCAR-5
786-0 = system: 786-0
SR = system: SR
NCI-H522 = system: NCI-H522
SK-MEL-28 = system: SK-MEL-28
MOLT-4 = system: MOLT-4
EKVX = system: EKVX
IGROV-1 = system: IGROV-1
CCRF-CEM = system: CCRF-CEM
U-251 = system: U-251
HT-29 = system: HT-29
BT-549 = system: BT-549
DU-145 = system: DU-145

| Structure (SMILES) | GI50 (K562) | GI50 (UACC-257) | GI50 (HCC 2998) | GI50 (SK-MEL-2) | GI50 (OVCAR-4) | GI50 (RPMI-8226) | GI50 (SK-MEL-5) | GI50 (OVCAR-5) | GI50 (786-0) | GI50 (SR) | GI50 (NCI-H522) | GI50 (SK-MEL-28) | GI50 (MOLT-4) | GI50 (EKVX) | GI50 (IGROV-1) | GI50 (CCRF-CEM) | GI50 (U-251) | GI50 (HT-29) | GI50 (BT-549) | GI50 (DU-145) |
| --- | --- | --- | --- | --- | --- | --- | --- | --- | --- | --- | --- | --- | --- | --- | --- | --- | --- | --- | --- | --- |
| COc1ccc2cc(-c3nc(N)nc(N4N=C(C)CC4(C)C)n3)c(=N)oc2c1 | 16.4 µM (inactive) | 28.9 µM (inactive) | 17.9 µM (inactive) | 17.5 µM (inactive) | 18 µM (inactive) | 16 µM (inactive) | 16.2 µM (inactive) | 18.7 µM (inactive) | 17.9 µM (inactive) | 13.9 µM (inactive) | 13.5 µM (inactive) | 16.9 µM (inactive) | 11.7 µM (inactive) | 26.2 µM (inactive) | 14.8 µM (inactive) | 16.1 µM (inactive) | 18.8 µM (inactive) | 17.6 µM (inactive) | 18.6 µM (inactive) | 15.8 µM (inactive) |
| Cn1ccnc1CCc1ccc(F)cc1F | > 100 µM (inactive) |  | > 100 µM (inactive) | > 100 µM (inactive) | > 100 µM (inactive) | > 100 µM (inactive) | > 100 µM (inactive) | > 100 µM (inactive) | > 100 µM (inactive) | > 100 µM (inactive) | > 100 µM (inactive) | > 100 µM (inactive) | > 100 µM (inactive) | > 100 µM (inactive) | > 100 µM (inactive) | > 100 µM (inactive) | > 100 µM (inactive) | > 100 µM (inactive) | > 100 µM (inactive) | > 100 µM (inactive) |
| Nc1ccc(-c2nc3ccccc3s2)cc1Cl | 66.7 µM (inactive) | > 100 µM (inactive) | > 64.3 µM (inactive) | > 100 µM (inactive) | > 100 µM (inactive) | 36.1 µM (inactive) | > 87.3 µM (inactive) | 0.0259 µM (active) | 74 µM (inactive) | > 100 µM (inactive) | 98.6 µM (inactive) | > 100 µM (inactive) | 16.3 µM (inactive) | 25.2 µM (inactive) | < 0.01 µM (active) | 10.2 µM (inactive) | 58.2 µM (inactive) | > 100 µM (inactive) | > 66.4 µM (inactive) | > 100 µM (inactive) |
| NCCCCNC1(c2cc3ccccc3s2)CCCCC1 | 1.59 µM (inactive) | 1.84 µM (inactive) | 1.65 µM (inactive) | 1.88 µM (inactive) | 6.76 µM (inactive) | 1.84 µM (inactive) | 1.74 µM (inactive) | 3.77 µM (inactive) | 1.55 µM (inactive) | 1.49 µM (inactive) | 2.42 µM (inactive) | 1.83 µM (inactive) | 2.07 µM (inactive) | 14.6 µM (inactive) | 3.08 µM (inactive) | 1.69 µM (inactive) | 2.34 µM (inactive) | 2.42 µM (inactive) | 11.8 µM (inactive) | 11.1 µM (inactive) |
| Cc1ccc(/C=C/C(=O)Oc2ccc(/C=C3\CCC/C(=C\c4ccc(OC(=O)/C=C/c5ccc(C)cc5)cc4)C3=O)cc2)cc1 |  | > 100 µM (inactive) | > 100 µM (inactive) | 48.3 µM (inactive) | > 100 µM (inactive) | > 100 µM (inactive) | > 100 µM (inactive) | > 100 µM (inactive) | 16.7 µM (inactive) | 27.5 µM (inactive) | > 100 µM (inactive) | > 100 µM (inactive) | > 100 µM (inactive) | > 100 µM (inactive) |  | 60.8 µM (inactive) | 34 µM (inactive) | > 100 µM (inactive) | > 100 µM (inactive) | > 100 µM (inactive) |
| Nc1ccc(Sc2c3ccccc3nc3ccccc23)cc1 | 2.65 µM (inactive) | 16.6 µM (inactive) | 24.4 µM (inactive) | 16.9 µM (inactive) | 12.1 µM (inactive) | 2.82 µM (inactive) | 16.6 µM (inactive) | 21.8 µM (inactive) | 5.48 µM (inactive) | 3.74 µM (inactive) | 6.15 µM (inactive) | 15.2 µM (inactive) | 3.02 µM (inactive) | 23 µM (inactive) | 17.7 µM (inactive) | 3.28 µM (inactive) | 15.2 µM (inactive) | 15.8 µM (inactive) | 14.3 µM (inactive) | 13.7 µM (inactive) |
| CC(C)(C)COS(=O)OCC(C)(C)C | > 100 µM (inactive) | > 100 µM (inactive) | > 100 µM (inactive) | > 100 µM (inactive) | > 100 µM (inactive) | > 100 µM (inactive) | > 100 µM (inactive) | > 100 µM (inactive) | > 100 µM (inactive) | > 100 µM (inactive) | > 100 µM (inactive) | > 100 µM (inactive) | > 100 µM (inactive) | > 100 µM (inactive) | > 100 µM (inactive) | > 100 µM (inactive) | > 100 µM (inactive) | > 100 µM (inactive) | > 100 µM (inactive) | > 100 µM (inactive) |
| CC(=O)/N=C1/N(/C=C2\C(=O)Oc3ccccc3C2=O)C(=O)/C(=C/c2cccc(Cl)c2Cl)N1C | 10.7 µM (inactive) | 39 µM (inactive) | 16.7 µM (inactive) | 19.8 µM (inactive) |  | 12.4 µM (inactive) | 12.9 µM (inactive) | 30.3 µM (inactive) | 34.3 µM (inactive) | 10.8 µM (inactive) | 18.2 µM (inactive) | 29 µM (inactive) | 20.7 µM (inactive) | 28.9 µM (inactive) | 21.4 µM (inactive) | 11.1 µM (inactive) | 23.1 µM (inactive) | 19.1 µM (inactive) | 20.4 µM (inactive) | 41.8 µM (inactive) |
| O=C1O[C@]2(c3ccccc3)C(c3ccccc3)=C[C@]2(C(=O)c2ccccc2)C1=O | 23 µM (inactive) | 30.3 µM (inactive) | 20.3 µM (inactive) | 27.2 µM (inactive) | 39.1 µM (inactive) | 25.8 µM (inactive) | 31.8 µM (inactive) | > 100 µM (inactive) | 26.2 µM (inactive) | 10.7 µM (inactive) | 21.1 µM (inactive) | 35.6 µM (inactive) | 4.02 µM (inactive) | 34 µM (inactive) | 33.1 µM (inactive) |  | 31.6 µM (inactive) | 55 µM (inactive) | 36.1 µM (inactive) | 0.292 µM (active) |
| CC(C)C[C@H](NC(=O)[C@H](Cc1ccccc1)NC(=O)c1cnccn1)B(O)O [BORTEZOMIB] | < 0.01 µM (active) | < 0.01 µM (active) | < 0.01 µM (active) | 0.01 µM (active) | < 0.01 µM (active) | 0.01 µM (active) |  | < 0.01 µM (active) | < 0.01 µM (active) | < 0.01 µM (active) | < 0.01 µM (active) | < 0.01 µM (active) | < 0.01 µM (active) | < 0.01 µM (active) | < 0.01 µM (active) |  | < 0.01 µM (active) | < 0.01 µM (active) | < 0.01 µM (active) | < 0.01 µM (active) |
| O=c1[nH]nc(-c2cccc([N+](=O)[O-])c2)[nH]1 | > 100 µM (inactive) | > 100 µM (inactive) | > 100 µM (inactive) | > 100 µM (inactive) | > 100 µM (inactive) | > 100 µM (inactive) |  | > 100 µM (inactive) | > 100 µM (inactive) | > 100 µM (inactive) | > 100 µM (inactive) | > 100 µM (inactive) | > 100 µM (inactive) | 8.34 µM (inactive) | > 100 µM (inactive) | > 100 µM (inactive) | > 100 µM (inactive) | > 100 µM (inactive) | > 100 µM (inactive) | > 100 µM (inactive) |
| COc1nc(C)nc2sc3c(c12)CCCC3 | > 100 µM (inactive) | > 100 µM (inactive) | > 100 µM (inactive) | > 100 µM (inactive) | > 100 µM (inactive) | 55.3 µM (inactive) | > 100 µM (inactive) | > 100 µM (inactive) | > 100 µM (inactive) | > 100 µM (inactive) | > 100 µM (inactive) | > 100 µM (inactive) | > 100 µM (inactive) | 38.4 µM (inactive) | > 100 µM (inactive) |  | > 100 µM (inactive) | > 100 µM (inactive) | > 100 µM (inactive) | > 100 µM (inactive) |
| COC(=O)N1CC(=O)C(C(=O)NC23CC4CC(CC(C4)C2)C3)C1 (centres undefined) | 55.2 µM (inactive) | > 100 µM (inactive) | 37 µM (inactive) | 77.3 µM (inactive) | > 100 µM (inactive) | 32.8 µM (inactive) | 45.6 µM (inactive) | > 100 µM (inactive) | 33.3 µM (inactive) | 48.3 µM (inactive) | 49.3 µM (inactive) | 66.4 µM (inactive) | 35.8 µM (inactive) |  | > 100 µM (inactive) | 42.5 µM (inactive) | 67.3 µM (inactive) | 78.9 µM (inactive) | 66.7 µM (inactive) | 76.4 µM (inactive) |
| COC(=O)C1=C(C)NC2=C(C(=O)c3ccccc32)C1c1cn(-c2ccccc2)nc1-c1ccccc1 (centres undefined) | 16.3 µM (inactive) | > 85.3 µM (inactive) | 13.6 µM (inactive) | > 59.3 µM (inactive) | > 100 µM (inactive) | 2.67 µM (inactive) | > 100 µM (inactive) | > 100 µM (inactive) | > 87.1 µM (inactive) | 2 µM (inactive) | > 53.5 µM (inactive) | 96.8 µM (inactive) | 2.96 µM (inactive) | > 42.9 µM (inactive) | 6.24 µM (inactive) | 23.4 µM (inactive) | 15.5 µM (inactive) |  | 63.7 µM (inactive) | > 100 µM (inactive) |
